Data: patent US7655217B2, “Near infrared imaging agent” (Institut fur Diagnosikforschung GmbH, priority 1997, dated 2010)

Assays:
[1] = tested on: tumour LS 174 T; assay: laser-induced fluorescence imaging of tumour-bearing mouse; format: in vivo, mouse (Swiss Nude)
Text: 2-[7-[1,3-dihydro-3,3-dimethyl-5-(methoxycarbonyl)-1-(4-sulfobutyl)-2H-indol-2-yliden]-1,3,5-heptatrienyl]-3,3 -dimethyl-5-(methoxycarbonyl)-1-(4-sulfobutyl)-3H-indolium, sodium salt at a dose of 3.8 μmol/kg body weight was applied intravenously to an anaesthetized, tumour-bearing mouse (Swiss Nude; tumour LS 174 T at the right hindleg).
The laser-induced fluorescent images were taken prior to, and at various points in time after, applying the substance with a fluorescence imager (at Physikalisch-Technische Bundesanstalt, Berlin Charlottenburg). Radiation was excited using monochromatic laser light at 740 nm by decoupling the radiation via a fibre optical waveguide system. Exciting radiation below 740 nm was removed using a cutoff filter. The laser-induced fluorescence light above 740 nm was recorded using a CCD camera (Charge Coupled Device), and data was stored in the form of black-and-white images.

[2] = molecular target: albumin (Homo sapiens, UniProt P02768); details: cited from earlier work
Sequence of albumin (P02768 25-609, species assumed): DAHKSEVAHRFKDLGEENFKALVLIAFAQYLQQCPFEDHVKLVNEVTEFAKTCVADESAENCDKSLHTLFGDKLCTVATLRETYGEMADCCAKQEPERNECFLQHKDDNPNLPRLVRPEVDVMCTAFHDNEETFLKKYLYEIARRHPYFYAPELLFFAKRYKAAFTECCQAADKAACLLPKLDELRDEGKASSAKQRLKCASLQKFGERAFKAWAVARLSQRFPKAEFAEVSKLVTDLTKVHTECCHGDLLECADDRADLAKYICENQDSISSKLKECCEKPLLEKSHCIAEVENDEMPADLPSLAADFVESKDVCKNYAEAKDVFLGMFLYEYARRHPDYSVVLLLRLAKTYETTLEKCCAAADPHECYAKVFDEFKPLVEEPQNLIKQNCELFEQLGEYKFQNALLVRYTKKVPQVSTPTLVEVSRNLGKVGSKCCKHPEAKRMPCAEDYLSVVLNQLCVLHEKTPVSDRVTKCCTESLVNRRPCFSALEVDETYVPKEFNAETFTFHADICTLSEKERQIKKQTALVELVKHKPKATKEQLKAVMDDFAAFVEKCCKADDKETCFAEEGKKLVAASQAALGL

[3] = cited from earlier work
[4] = in vivo; cited from earlier work

| Structure (SMILES) | fluorescent intensity distribution ([1]; 30 seconds after i.v. 3.8 μmol/kg body weight, excitation 740 nm) | fluorescent intensity in the tumour as compared with the rest of the body ([1]; 18 hours after i.v. 3.8 μmol/kg body weight) | distribution of the substance in the animal ([1]; up to 1 h after i.v. 3.8 μmol/kg body weight) | binding to albumin [2] | stability when dissolved ([3]; dissolved) | applicability in saline media ([3]; saline media) | LD50 [4] [mmol/kg] |
| --- | --- | --- | --- | --- | --- | --- | --- |
| COC(=O)c1ccc2c(c1)C(C)(C)C(=CC=CC=CC=CC1=[N+](CCCCS(=O)(=O)O)c3ccc(C(=O)OC)cc3C1(C)C)N2CCCCS(=O)(=O)O.[Na+] [Example 8, 2-[7-[1,3-dihydro-3,3-dimethyl-5-(methoxycarbonyl)-1-(4-sulfobutyl)-2H-indol-2-yliden]-1,3,5-heptatrienyl]-3,3-dimethyl-5-(methoxycarbonyl)-1-(4-sulfobutyl)-3H-indolium, sodium salt] | values being increased in the hepatic and pulmonary regions and in the tumour | clearly increased fluorescent intensity | spreads more and more throughout the animal | – | – | – | – |
| CC1(C)C(/C=C/C=C/C=C/C=C2\N(CCCCS(=O)(=O)O)c3ccc4ccccc4c3C2(C)C)=[N+](CCCCS(=O)(=O)[O-])c2ccc3ccccc3c21 [Indocyanine green] | – | – | – | up to 100% | unstable when dissolved | precipitation will occur | 0.84 |
